Converted amounts (≈) assume the structure as drawn. Where two headings read alike, the source gives them in different places.
Legend:
[1] = test system: Human hepatocellular carcinoma cell HepG2; test: cells; conditions: for IC50: HepG2, read-out: IC50 (50% inhibition concentration); for CC50: HepG2, read-out: LC50 (50% lethal concentration)
Source text: (§1) In Vitro Anti-Cancer Test
(§2) The in vitro anti-cancer test was primarily used to detect the effect of a candidate drug on cancer cell proliferation. The working principle involved therein is the ability of viable cells to shift alamarBlue (AbD Serotec, UK) from its originally non-fluorescent oxidized state (non-fluorescent, blue) to a reduced form (fluorescent, red) having fluorescence via metabolic reaction. According to the fluorescent data result generated by the alamarBlue reagent thus obtained, the proliferation of the viable cells and cell activity can be quantified for detection.
(§3) In the in vitro anti-cancer tests, a candidate drug was tested at 5 different concentrations of 0.01, 0.1, 1, 10, and 100 μg/ml, and six human cancer cell lines and a normal human cell line were used (see Table 5).

[2] = test system: Human promyelocytic leukemia cell HL-60; test: cells; conditions: for CC50: HL-60, read-out: LC50 (50% lethal concentration)
Source text: as §1, §2, §3

in vitro = test: in vitro
Source text: as §1, §2, §3

[3] = test system: Human breast adenocarcinoma cell MCF7; test: cells; conditions: Homo sapiens; for IC50: MCF7, read-out: IC50 (50% inhibition concentration); for CC50: MCF7, read-out: LC50 (50% lethal concentration)
Source text: as §1, §2, §3

[4] = test system: Human colon adenocarcinoma cell HT-29; test: cells; conditions: for IC50: HT-29, read-out: IC50 (50% inhibition concentration); for CC50: HT-29, read-out: LC50 (50% lethal concentration)
Source text: as §1, §2, §3

[5] = test system: Human lung carcinoma cell A549; test: cells; conditions: for CC50: A549, read-out: LC50 (50% lethal concentration)
Source text: as §1, §2, §3

[6] = test system: Human histocytic lymphoma cell U937; test: cells; conditions: for CC50: U-937, read-out: LC50 (50% lethal concentration)
Source text: as §1, §2, §3

[7] = test system: Human umbilical venal epithelial cell (HUVEC); test: cells; conditions: Homo sapiens, HUVEC, read-out: IC50 (50% inhibition concentration)
Source text: as §1, §2, §3

[8] = HL-60, read-out: IC50 (50% inhibition concentration)
[9] = A549, read-out: IC50 (50% inhibition concentration)
[10] = U-937, read-out: IC50 (50% inhibition concentration)

Structure (SMILES) | IC50 [1] | IC50 [2, 8] | CC50 (in vitro) | IC50 [3] | CC50 [3] | CC50 [1] | IC50 [4] | CC50 [4] | CC50 [2] | IC50 [5, 9] | CC50 [5] | IC50 [6, 10] | CC50 [6] | IC50 [7] | IC50 ([6]; U-937, read-out: IC50 (50% inhibition concentration), U937) | IC50 ([2]; HL-60, read-out: IC50 (50% inhibition concentration), HL-60) | IC50 ([5]; A549, read-out: IC50 (50% inhibition concentration), A549)
C=C(C)[C@@H]1CC[C@@]2(C)CC1c1c(O)c3c(c(CC=C(C)C)c1O2)O[C@]12C(=C[C@@H]4CC1C(C)(C)O[C@]2(C/C=C(/C)C(=O)O)C4=O)C3=O [Gh-2603-1, 2-butenoic acid, 2-methyl-4-[(1R,3aS,5S,9S,10R,13S,16aS)-3a,4,5,7,10,11,12,13-octahydro-8-hydroxy-3,3,13-trimethyl-15-(3-methyl-2-butenyl)-10-(1-methylethenyl)-7,18-dioxo-1,5:9,13-dimethano-1H,3H,9H-furo[3.4-g]oxocino[3.2-b]xanthen-1-yl]-,(2Z)-] | 1 µg/mL (≈ 1.59 µM) | 1 µg/mL (≈ 1.59 µM) | 1.7 µg/mL (≈ 2.7 µM) |  |  |  |  |  |  |  |  |  |  |  |  |  | 
CC(C)=CCC/C(C)=C/Cc1c(O)c(CC=C(C)C)c2c(c1O)C(=O)C1=C[C@@H]3CC4C(C)(C)O[C@](C/C=C(/C)C(=O)O)(C3=O)[C@@]14O2 [Gh-2505, gambogenic acid] | 2.1 µg/mL (≈ 3.33 µM) | 0.75 µg/mL (≈ 1.19 µM) | 2.3 µg/mL (≈ 3.65 µM) | 1.9 µg/mL (≈ 3.01 µM) | 19 µg/mL (≈ 30.1 µM) | 6.5 µg/mL (≈ 10.3 µM) | 2.1 µg/mL (≈ 3.33 µM) | 4.4 µg/mL (≈ 6.98 µM) | 7.2 µg/mL (≈ 11.4 µM) | 0.62 µg/mL (≈ 0.983 µM) | 12 µg/mL (≈ 19 µM) | 1.1 µg/mL (≈ 1.74 µM) | 3.7 µg/mL (≈ 5.87 µM) | 0.28 µg/mL (≈ 0.444 µM) |  |  | 
CC(C)=CCC[C@@]1(C)C=Cc2c(O)c3c(c(CC=C(C)C)c2O1)O[C@]12C(=C[C@@H]4CC1C(C)(C)O[C@]2(C/C=C(\C)C(=O)O)C4=O)C3=O [Gh-1642, epiisogambogic acid] | 1.1 µg/mL (≈ 1.75 µM) | 6 µg/mL (≈ 9.54 µM) | 1.3 µg/mL (≈ 2.07 µM) | 2.4 µg/mL (≈ 3.82 µM) | 29 µg/mL (≈ 46.1 µM) | 5.3 µg/mL (≈ 8.43 µM) | 1.9 µg/mL (≈ 3.02 µM) | 4.8 µg/mL (≈ 7.63 µM) | 35 µg/mL (≈ 55.7 µM) | 0.51 µg/mL (≈ 0.811 µM) | 2.8 µg/mL (≈ 4.45 µM) | 8.8 µg/mL (≈ 14 µM) | 33 µg/mL (≈ 52.5 µM) | 0.18 µg/mL (≈ 0.286 µM) |  |  | 
C=C(C)C1CC[C@]2(C)C[C@H]1c1c(O)c3c(c(CC=C(C)C)c1O2)O[C@]12C(=C[C@@H]4CC1C(C)(C)OC2(C/C=C(/C)C(=O)O)C4=O)C3=O (stereo partly shown) [Gh-2603-2, gambogellic acid] |  |  | 1.7 µg/mL (≈ 2.7 µM) |  |  |  |  |  |  | 0.2 µg/mL (≈ 0.318 µM) |  |  |  |  |  |  | 
CC(C)=CCC[C@]1(C)C=Cc2c(O)c3c(c(CC=C(C)C)c2O1)O[C@]12C(=C[C@@H]4CC1C(C)(C)O[C@]2(C/C=C(/CO)C(=O)O)C4=O)C3=O [Gh-1601-A, 30-hydroxygambogic acid] |  |  | 5.4 µg/mL (≈ 8.38 µM) |  |  |  |  |  | 3 µg/mL (≈ 4.65 µM) |  |  |  |  |  | 0.09 µg/mL (≈ 0.14 µM) |  | 
C=C(C)[C@@H]1CC[C@@]2(C)CC1c1c(O)c3c(c(CC=C(C)C)c1O2)O[C@]12C(=C[C@@H]4CC1C(C)(C)O[C@]2(/C=C/C(C)C(=O)O)C4=O)C3=O (stereo partly drawn) [Gh-2507, 3-butenoic acid, 2-methyl-4-[(1R,3aS,5S,9S,10R,13S,16aS)-3a,4,5,7,10,11,12,13-octahydro-8-hydroxy-3,3,13-trimethyl-15-(3-methyl-2-butenyl)-10-(1-methylethenyl)-7,18-dioxo-1,5:9,13-dimethano-1H,3H,9H-furo[3.4-g]oxocino[3.2-b]xanthen-1-yl],(3E)-] | 1.7 µg/mL (≈ 2.7 µM) | 0.2 µg/mL (≈ 0.318 µM) | 21 µg/mL (≈ 33.4 µM) | 0.19 µg/mL (≈ 0.302 µM) | 2.2 µg/mL (≈ 3.5 µM) | 7.1 µg/mL (≈ 11.3 µM) | 1.6 µg/mL (≈ 2.54 µM) | 8.6 µg/mL (≈ 13.7 µM) | 5.3 µg/mL (≈ 8.43 µM) | 0.13 µg/mL (≈ 0.207 µM) | 0.53 µg/mL (≈ 0.843 µM) | 0.45 µg/mL (≈ 0.716 µM) | 2.7 µg/mL (≈ 4.29 µM) | 0.41 µg/mL (≈ 0.652 µM) |  |  | 
CC(C)=CCc1c2c(c(O)c3c1O[C@]14C(=C[C@@H]5CC1C(C)(C)O[C@]4(C/C=C(\C)C=O)C5=O)C3=O)C=CC(C)(C)O2 [Gh-2501, isomorellin] | 2.2 µg/mL (≈ 4.04 µM) | 1 µg/mL (≈ 1.84 µM) | 1.8 µg/mL (≈ 3.3 µM) | 1.3 µg/mL (≈ 2.39 µM) | 3.7 µg/mL (≈ 6.79 µM) | 4.5 µg/mL (≈ 8.26 µM) | 2.1 µg/mL (≈ 3.86 µM) | 4 µg/mL (≈ 7.34 µM) | 4 µg/mL (≈ 7.34 µM) | 0.61 µg/mL (≈ 1.12 µM) | 2.1 µg/mL (≈ 3.86 µM) | 0.9 µg/mL (≈ 1.65 µM) | 3.1 µg/mL (≈ 5.69 µM) | 0.26 µg/mL (≈ 0.477 µM) |  |  | 
C=C(C)C1CC[C@]2(C)C[C@H]1c1c(O)c3c(c(CC=C(C)C)c1O2)O[C@]12C(=C[C@@H]4CC1C(C)(C)O[C@]2(/C=C/C(C)C(=O)O)C4=O)C3=O (stereo partly drawn) [Gh-2508, 3-butenoic acid, 2-methyl-4-[(1R,3aS,5S,9R,10S,13R,16aS)-3a,4,5,7,10,11,12,13-octahydro-8-hydroxy-3,3,13-trimethyl-15-(3-methyl-2-butenyl)-10-(1-methylethenyl)-7,18-dioxo-1,5:9,13-dimethano-1H,3H,9H-furo[3.4-g]oxocino[3.2-b]xanthen-1-yl]-,(3E)-] | 1.9 µg/mL (≈ 3.02 µM) | 0.28 µg/mL (≈ 0.445 µM) | 5.4 µg/mL (≈ 8.59 µM) | 0.087 µg/mL (≈ 0.138 µM) | 1.7 µg/mL (≈ 2.7 µM) | 5.9 µg/mL (≈ 9.38 µM) | 1.8 µg/mL (≈ 2.86 µM) | 5.5 µg/mL (≈ 8.75 µM) | 6.6 µg/mL (≈ 10.5 µM) | 0.16 µg/mL (≈ 0.254 µM) | 0.46 µg/mL (≈ 0.732 µM) | 0.28 µg/mL (≈ 0.445 µM) | 2.2 µg/mL (≈ 3.5 µM) | 0.52 µg/mL (≈ 0.827 µM) |  |  | 
CC(C)=CCC[C@]1(C)C=Cc2c(O)c3c(c(CC=C(C)C)c2O1)O[C@]12C(=CC4CC1C(C)(C)O[C@]2(C/C=C(/C)C(=O)O)C4=O)C3=O [Gh-2605, gambogic acid] | 0.23 µg/mL (≈ 0.366 µM) | 0.17 µg/mL (≈ 0.27 µM) | 1.6 µg/mL (≈ 2.54 µM) | 4.4 µg/mL (≈ 7 µM) | 5.9 µg/mL (≈ 9.38 µM) | 3.5 µg/mL (≈ 5.57 µM) | 0.18 µg/mL (≈ 0.286 µM) | 0.61 µg/mL (≈ 0.97 µM) | 2.9 µg/mL (≈ 4.61 µM) | 0.12 µg/mL (≈ 0.191 µM) | 0.37 µg/mL (≈ 0.588 µM) | 0.76 µg/mL (≈ 1.21 µM) | 2.9 µg/mL (≈ 4.61 µM) | 0.098 µg/mL (≈ 0.156 µM) |  |  | 
CC(C)=CCc1c2c(c(O)c3c1O[C@@]1(C)CCC4C3C1C4(C)C)C(=O)C1=C[C@@H]3CC4C(C)(C)O[C@](C/C=C(/C)C(=O)O)(C3=O)[C@@]14O2 [Gh-2607-1A] | 0.43 µg/mL (≈ 0.684 µM) | 0.49 µg/mL (≈ 0.779 µM) | 1.5 µg/mL (≈ 2.39 µM) | 0.12 µg/mL (≈ 0.191 µM) | 1.5 µg/mL (≈ 2.39 µM) | 3.9 µg/mL (≈ 6.2 µM) | 0.24 µg/mL (≈ 0.382 µM) | 0.84 µg/mL (≈ 1.34 µM) | 2.6 µg/mL (≈ 4.14 µM) | 0.19 µg/mL (≈ 0.302 µM) | 0.45 µg/mL (≈ 0.716 µM) | 0.15 µg/mL (≈ 0.239 µM) | 0.37 µg/mL (≈ 0.588 µM) | 0.43 µg/mL (≈ 0.684 µM) |  |  | 
CC(C)=CCC/C(C)=C/Cc1c(O)c(CC=C(C)C)c2c(c1O)C(=O)C1=C[C@@H]3CC4C(C)(C)O[C@](C/C=C(\C)C(=O)O)(C3=O)[C@@]14O2 [Gh-2642, isogambogenic acid] | 11 µg/mL (≈ 17.4 µM) | 9 µg/mL (≈ 14.3 µM) | 11 µg/mL (≈ 17.4 µM) | 3 µg/mL (≈ 4.76 µM) | 10 µg/mL (≈ 15.9 µM) | 29 µg/mL (≈ 46 µM) | 12 µg/mL (≈ 19 µM) | 42 µg/mL (≈ 66.6 µM) | 32 µg/mL (≈ 50.7 µM) | 1.5 µg/mL (≈ 2.38 µM) | 4.6 µg/mL (≈ 7.29 µM) | 1.3 µg/mL (≈ 2.06 µM) | 4.1 µg/mL (≈ 6.5 µM) | 2.4 µg/mL (≈ 3.8 µM) |  |  | 
CC(C)=CCC[C@@]1(C)C=Cc2c(O)c3c(c(CC=C(C)C)c2O1)O[C@]12C(=C[C@@H]4CC1C(C)(C)O[C@]2(C/C=C(/CO)C(=O)O)C4=O)C3=O [Gh-1602, 30-hydroxyepigambogic acid] |  |  | 0.94 µg/mL (≈ 1.46 µM) |  | 4 µg/mL (≈ 6.2 µM) |  |  |  |  |  |  |  |  |  |  | 1 µg/mL (≈ 1.55 µM) | 0.4 µg/mL (≈ 0.62 µM)
